Among the test systems are HT-29; SR; SNB-19; COLO 205; KM12; OVCAR-8; A498; NCI/ADR-RES; UACC-257; A549; UO-31; SK-MEL-5; U-251; MDA-N; Hs-578T; NCI-H226; OVCAR-5; SW-620; OVCAR-3; HCC 2998.
What all share (assay): growth of human tumour cells (NCI), 48 h

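Following 48 hours of exposure in 96-well plates, responses at five concentrations were used to interpolate endpoints linearly. GI50 is the concentration that inhibits growth by half.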 Active and inactive are the calls of the source. No stated cut-off is given here; in the data, active = GI50 up to about 1.1 µM and inactive = higher.

As for `CC(C)(C)OC(=O)NC(Cc1ccc(OCc2ccccc2)cn1)C(=O)O` (configuration not stated), the GI50 in the assay with HT-29, with SR, in the assay with SNB-19, in the assay on COLO 205, in the assay with KM12 and with OVCAR-8 was > 100 µM (inactive) throughout. The GI50 in the assay with A498, with NCI/ADR-RES, in the assay with UACC-257, in the assay with A549, with UO-31 and in the assay with SK-MEL-5 was > 100 µM (inactive) in each case. The GI50 with U-251, in the assay with MDA-N, in the assay on Hs-578T, in the assay on NCI-H226, with OVCAR-5 and in the assay with SW-620 was > 100 µM (inactive) in each case. The GI50 in the assay with OVCAR-3 and in the assay on HCC 2998 was > 100 µM (inactive) in each case.
For `O=C(NO)c1ccc(OCc2cccc(Cl)c2)cc1`, the GI50 with HT-29 is 8.45 µM (inactive); in the assay on SR, 2.16 µM (inactive); in the assay on SNB-19 it was 24.5 µM (inactive); in the assay with COLO 205, 7.35 µM (inactive); in the assay with KM12, 11.9 µM (inactive); in the assay with OVCAR-8 it was 3.01 µM (inactive). Further, the GI50 in the assay with A498 is 4.81 µM (inactive); in the assay on NCI/ADR-RES it was 2.13 µM (inactive); with UACC-257, 13.6 µM (inactive); in the assay with A549, 8.18 µM (inactive); in the assay with UO-31 it was 7.43 µM (inactive); in the assay with SK-MEL-5, 12.4 µM (inactive). For the same compound, the GI50 in the assay with U-251 was 11.6 µM (inactive); in the assay with MDA-N, 10.1 µM (inactive); in the assay with Hs-578T it was 16.2 µM (inactive); in the assay with NCI-H226, 11.9 µM (inactive); in the assay with OVCAR-5 it was 6.15 µM (inactive); in the assay on SW-620, 5.08 µM (inactive). Also, the GI50 with OVCAR-3 is 4.55 µM (inactive); in the assay on HCC 2998, 5.87 µM (inactive).
As to `COC(=O)C#CC1(O)C=CC(=O)C=C1`, the GI50 in the assay with HT-29 is 0.253 µM (active); in the assay on SR, 0.0519 µM (active); in the assay with SNB-19, 4.63 µM (inactive); in the assay with COLO 205, 2.41 µM (inactive); with KM12 it was 0.843 µM (active); in the assay with OVCAR-8 it was 0.203 µM (active). Moreover, the GI50 was 34 µM (inactive) in the assay on A498; 0.525 µM (active) in the assay on NCI/ADR-RES; 1.15 µM (inactive) with UACC-257; 9.46 µM (inactive) in the assay on A549; 0.889 µM (active) with UO-31; 1.72 µM (inactive) in the assay on SK-MEL-5. The GI50 in the assay with U-251 was 0.841 µM (active); in the assay with MDA-N, 1.18 µM (inactive); with Hs-578T it was 2.79 µM (inactive); with NCI-H226 it was 5.07 µM (inactive); in the assay with OVCAR-5, 1.42 µM (inactive); with SW-620 it was 0.299 µM (active). Also, the GI50 in the assay with OVCAR-3 was 0.367 µM (active); in the assay on HCC 2998 it was 2.54 µM (inactive).
Regarding `COC1/C=C/OC2(C)Oc3c(C)c(O)c4c(c3C2=O)C(=O)C=C(NC(=O)/C(C)=C\C=C\C(C)C(OC=O)C(C)C(O)C(C)C(OC(C)=O)C1C)C4=O` (configuration not stated), the GI50 in the assay on HT-29 was 10.5 µM (inactive); in the assay with SR it was 2.77 µM (inactive); in the assay on SNB-19 it was 14.5 µM (inactive); in the assay with COLO 205 it was 4.59 µM (inactive); in the assay with KM12, 26.8 µM (inactive); in the assay with OVCAR-8 it was 15.3 µM (inactive). Besides, the GI50 in the assay with A498 is 18.6 µM (inactive); with NCI/ADR-RES, 17.5 µM (inactive); with UACC-257, 11.4 µM (inactive); with A549, 21 µM (inactive); in the assay with UO-31, 16 µM (inactive); with SK-MEL-5, 15.8 µM (inactive). The GI50 in the assay with U-251 is 20.6 µM (inactive); with MDA-N it was 15.8 µM (inactive); in the assay on Hs-578T it was 15.2 µM (inactive); with NCI-H226, 13.6 µM (inactive); in the assay with OVCAR-5, 20.7 µM (inactive); in the assay on SW-620, 4.04 µM (inactive). For the same compound, the GI50 is 3.76 µM (inactive) with OVCAR-3 and 19.6 µM (inactive) in the assay on HCC 2998.
On to `N#CCN(Cc1ccccc1)[C@@H]1CCC[C@]1(O)C#Cc1ccc2c(c1)OCO2`, for which the GI50 in the assay on HT-29 is 18.2 µM (inactive); in the assay on SR, 17.8 µM (inactive); in the assay on SNB-19 it was 20.7 µM (inactive); in the assay with COLO 205 it was 17.4 µM (inactive); in the assay with KM12 it was 15.2 µM (inactive); in the assay with OVCAR-8, 16.7 µM (inactive). Moreover, the GI50 in the assay with A498 was 20.3 µM (inactive); in the assay with NCI/ADR-RES, 19.5 µM (inactive); with UACC-257, 18.8 µM (inactive); in the assay with A549, 18.5 µM (inactive); with UO-31 it was 28.2 µM (inactive); in the assay on SK-MEL-5, 16.4 µM (inactive). The GI50 in the assay with U-251 was 17.9 µM (inactive); with MDA-N, 17.5 µM (inactive); in the assay with Hs-578T, 14.1 µM (inactive); in the assay on NCI-H226 it was 18.6 µM (inactive); in the assay on OVCAR-5, 16.1 µM (inactive); in the assay on SW-620, 22.5 µM (inactive). The figures for the GI50 in the assay with OVCAR-3 and in the assay on HCC 2998 were 14.9 µM (inactive) and 16.3 µM (inactive), respectively.
As to `O=c1[nH]nc(Cc2ccccc2)n1/N=C/c1ccccc1Cl`, the GI50 with HT-29, in the assay on SR, in the assay on SNB-19, with COLO 205, in the assay with KM12 and in the assay on OVCAR-8 was > 100 µM (inactive) each time. The GI50 in the assay with A498, in the assay on NCI/ADR-RES, with UACC-257, in the assay with A549, in the assay with UO-31 and in the assay on SK-MEL-5 was > 100 µM (inactive) in each case. For the same compound, the GI50 in the assay with U-251 is 53.1 µM (inactive); in the assay on MDA-N, > 100 µM (inactive); with Hs-578T it was 43.4 µM (inactive); in the assay on NCI-H226, > 100 µM (inactive); with OVCAR-5 it was > 100 µM (inactive); with SW-620, > 100 µM (inactive). Moreover, the GI50 in the assay with OVCAR-3 and with HCC 2998 was > 100 µM (inactive) in each case.
Regarding `O=C(Cn1c(C(=O)/C=C/c2cccs2)nc2ccccc21)c1ccc(Cl)cc1`, the GI50 was 19.7 µM (inactive) in the assay with HT-29; 3.09 µM (inactive) in the assay with SR; 25.5 µM (inactive) with SNB-19; 17.5 µM (inactive) in the assay on COLO 205; 11.1 µM (inactive) in the assay with KM12; 19.9 µM (inactive) with A498. In addition, the GI50 was 14 µM (inactive) in the assay on NCI/ADR-RES; 17.9 µM (inactive) in the assay with UACC-257; 23.3 µM (inactive) in the assay on A549; 24.1 µM (inactive) in the assay on UO-31; 14.4 µM (inactive) with SK-MEL-5; 14.4 µM (inactive) in the assay on U-251. In addition, the GI50 was 21.1 µM (inactive) in the assay on MDA-N; 12.8 µM (inactive) in the assay with Hs-578T; 53.8 µM (inactive) in the assay with NCI-H226; > 100 µM (inactive) in the assay with OVCAR-5; 25.6 µM (inactive) in the assay with SW-620; 15.5 µM (inactive) in the assay with OVCAR-3. Also, in the assay with HCC 2998, the GI50 is 14.8 µM (inactive).
Turning to `CC(=O)NC1C(OCc2ccccc2)OC(CO)C(O)C1OCC(=O)N[C@@H](C)C(=O)N[C@H](CCC(=O)NCCCCNc1c2ccccc2nc2cccc([N+](=O)[O-])c12)C(N)=O` (some centres not stated), the GI50 in the assay on HT-29 is 1.18 µM (inactive); with SR, 1.07 µM (active); with SNB-19 it was 4.53 µM (inactive); in the assay on COLO 205 it was 0.684 µM (active); with KM12 it was 1.83 µM (inactive); in the assay on OVCAR-8, 1.55 µM (inactive). The GI50 was 2.16 µM (inactive) in the assay on A498; 16.7 µM (inactive) with NCI/ADR-RES; 2.13 µM (inactive) in the assay with UACC-257; 0.959 µM (active) in the assay on A549; 2.43 µM (inactive) with UO-31; 0.516 µM (active) with SK-MEL-5. Besides, the GI50 was 1.87 µM (inactive) in the assay with U-251; 1.64 µM (inactive) in the assay on MDA-N; 3.1 µM (inactive) in the assay on Hs-578T; 1.84 µM (inactive) in the assay on NCI-H226; 3.56 µM (inactive) in the assay with OVCAR-5; 0.618 µM (active) in the assay on SW-620. The values for the GI50 in the assay on OVCAR-3 and with HCC 2998 were 3.5 µM (inactive) and 0.682 µM (active), respectively.
Regarding `CCOC(=O)NC(Nc1c(F)c(F)c(F)c(F)c1F)(C(F)(F)F)C(F)(F)F`, the GI50 with SR, in the assay on SNB-19, with COLO 205, in the assay on KM12, in the assay on OVCAR-8 and in the assay with A498 was > 100 µM (inactive) throughout. The GI50 in the assay on NCI/ADR-RES, with UACC-257, in the assay with A549, in the assay with UO-31, with SK-MEL-5 and in the assay with U-251 was > 100 µM (inactive) each time. In addition, the GI50 with MDA-N, with Hs-578T, with NCI-H226, with OVCAR-5, with SW-620 and with OVCAR-3 was > 100 µM (inactive) in each case. Moreover, the GI50 with HCC 2998 is > 100 µM (inactive).
Consider `O=C(CCc1ccc(O)c(O)c1)NCCc1cc(O)cc(OCc2ccccc2)c1`, for which the GI50 in the assay with HT-29 is 38.9 µM (inactive); with SR, 21.1 µM (inactive); in the assay on SNB-19 it was 6.22 µM (inactive); with COLO 205, 20.6 µM (inactive); in the assay with KM12 it was 29.7 µM (inactive); in the assay with A498, > 100 µM (inactive). Moreover, the GI50 in the assay on NCI/ADR-RES is 43.5 µM (inactive); with UACC-257, > 100 µM (inactive); in the assay with A549 it was 52.6 µM (inactive); in the assay with UO-31, 4.69 µM (inactive); in the assay with SK-MEL-5, 13.5 µM (inactive); with U-251, 26.6 µM (inactive). Further, the GI50 is 19.5 µM (inactive) in the assay on MDA-N; 45.9 µM (inactive) in the assay with Hs-578T; 58.7 µM (inactive) with NCI-H226; 87.9 µM (inactive) in the assay with OVCAR-5; 25.9 µM (inactive) with SW-620; 35.8 µM (inactive) in the assay with OVCAR-3. Besides, the GI50 with HCC 2998 was 17.1 µM (inactive).
